Laboratory results as given in patent publication US20190086391A1, “METHOD AND SYSTEM FOR CONTINUOUS BIOSENSING” (Yissum Research Development Company of the Hebrew …, priority 2016, published 2019).
Entries after “also recorded” stand apart in the source; their conditions may differ. Read-outs that look alike come from different tables or passages of the source.

Tests used:
[1] = Real-time oxygen uptake in perfused microwell bioreactor; assay type: cell-based, human; settings: human
Experimental: (§1) PDMS microwell inserts were sterilized with 70% EtOH and 30 min exposure to UV light prior to cell seeding. Cells were trypsinized, counted and centrifuged at 300×g for 5 min at 4° C. The pellet was then mixed with […] CPOx-50-RuP oxygen-sensing beads (Colibri Photonics, Germany) and resuspended in 100 μl of ice-cold solution of collagen type I (BD Biosciences, USA) for a final seeding density of 4×10^6 cells/ml. The PDMS microwell insert was placed on ice and coated with ice-cold collagen solution for 5 min to remove air bubbles. Then 100 μl of collagen type I suspension containing cells and oxygen-sensing beads was layered on top the wells and incubated for 10 min on ice. The low temperature prevented premature collagen polymerization and the induction of cellular stress response pathways. Afterwards, excess cell and microbead suspension was gently wiped off the microwell insert using a sterile glass coverslip leading to a concentration of 100,000 cells and 20 oxygen-sensing beads per well. Variance in cell density between individual wells and between bioreactors was less than 10% measured by DNA content. The inoculated microwell insert was then incubated for 5 min at 37° C. to polymerize the collagen. Following polymerization, the insert was immersed in 5 ml of cell culture medium and incubated for 20 min at 37° C. prior to being sealed in the bioreactor housing. Bioreactors were then placed in a climate control chamber (Evotec, Germany) on an IX81 fluorescence microscope (Olympus, Japan). Bioreactors were continuously perfused with cell culture medium noted above supplemented with 10 mM HEPES and 1% DMSO at a flow rate of 2 μl/min. The automated and motorized microscope stage was equipped with a holder for three microreactors, allowing three experiments to run simultaneously.
(§2) Troglitazone (T2573), and rotenone (R8875) were purchased from Sigma-Aldrich (Schnelldorf, Germany) and diluted from H2O or DMSO stock concentration 1:1000 into HepG2/C3A culture medium. Exposure onset was calculated to within ±1 min based on volumetric flow rate, considering the length of the tubing and bioreactor volume.
(§3) Real-time oxygen measurements were performed optically using lifetime-based luminescencequenching as previously described (11). […] Excited by a sinusoidal amplitude-modulated 532 nm LED source, the microbeads emit a sinusoidal amplitudemodulated light at 605 nm that is shifted in phase due to oxygen quenching (FIG. 2D). To overcome the superposition of in-phase background fluorescence that alters the phase of the detected signal, a 53.5 kHz and 31.3 kHz two-frequency phase modulation was used. This allowed screening out background interference (26-28). Measurements were carried out by averaging 5 consecutive 3 second exposures, followed by 17 seconds intervals, for a total of 100 seconds. Measurements were taken every 15 minutes for as long as 28 days with no phototoxicity, signal drift, or relevant loss of signal intensity. The apparatus consists of the OPAL package (Colibri Photonics, Germany) that is comprised of a control module, 532 nm LED, and a photomultiplier (PMT) detector mounted on the ocular of an […] Olympus microscope (Olympus, Japan). A filter cube with 531/40 (Ex), 607/70 (Em) was inserted in the optical light path during measurements.

HepG2/C3A cells [2] = experiment: as above; assay type: cell-based, human
Experimental: as §1, §2, §3

isolated mitochondria = experiment: Oxygen consumption rate of ADP-stimulated isolated mitochondria; assay type: biochemical; settings: 50 μM injected after ADP; no enzymatic activation
Experimental: Mitochondria were isolated using a Mitochondria Isolation Kit (Abcam, UK) per manufacturer instructions. Briefly, 10^7 cells were collected and ruptured using 30 strokes in a pre-cooled dounce homogenizer. Homogenate was centrifuged twice at 1,000×g for 10 minutes at 4° C. to remove debris, and finally at 12,000×g for 15 minutes at 4° C. Pellet containing the isolated mitochondria was resuspended in a protease inhibitor cocktail. Protein concentration was determined using Bradford. 20 μg of mitochondrial protein per well was plated in gelatin-coated SeaHorse XFp cell culture miniplate and centrifuged at 3,000×g for 20 minutes at 4° C. in mitochondrial assay solution (MAS) as previously described (29). Oxygen consumption rate (OCR) was measured by the XFp Extracellular Flux Analyzer (Seahorse Biosciences, USA). Mitochondrial activity was profiled by successive injections of ADP (Sigma-Aldrich, Israel) and 50 μM of troglitazone, rotenone or DMSO control.

HepG2/C3A cells [3] = experiment: Flux balance analysis of metabolic pathways and ATP production; assay type: cell-based, human; settings: 50 μM; for ATP production, % of untreated cells: calculated from flux balance; for Glutaminolysis (calculated metabolic flux) / Glycolysis (calculated metabolic flux) / Lipogenesis (calculated metabolic flux) / Respiration (calculated metabolic flux): troglitazone 6 hours, rotenone 3 hours
Experimental: Glucose uptake, oxygen uptake and lactate production rates were measured by calculating the change in metabolite concentration between the bioreactor in- and outflow, as function of perfusion rate and cell number as described above. Metabolic rates were calculated assuming negligible contribution to oxygen uptake by fatty acid oxidation and enzymatic activity. Low level of lipids in the culture medium ensured that fatty acid uptake was 50-fold lower than glucose while glutamine contribution to the Krebs cycle was minor (results).
Based on these assumptions, oxidative phosphorylation flux was calculated by dividing oxygen uptake rate by six. 32 ATP molecules generated by complete oxidation of 1 molecule of glucose were estimated. Glycolysis flux was calculated by dividing lactate production rate by two, with maximal rate defined by glucose uptake rate minus the oxidative phosphorylation flux. ATP production in glycolysis was estimated to be 2 molecules per molecule of glucose. It was assumed that any glucose left over was directed toward lipogenesis, as the contribution of pentose phosphate pathway in nonproliferating cells is minor (31). Finally, it was assumed that excess lactate was produced by glutaminolysis, and confirmed the assumption using offline measurement of glutamine uptake (FIGS. 10A and 10B). ATP production in glutaminolysis was estimated to be 3 molecules per molecule of lactate generated.

HepG2/C3A cells [4] = experiment: JC-1 mitochondrial membrane potential staining; assay type: cell-based, human; settings: 50 μM
Experimental: JC-1 cell permeable dye was purchased from Life Technologies (New York, N.Y.). HepG2/C3A cells were incubated with 50 μM of troglitazone or rotenone for varying durations. To evaluate mitochondrial membrane potential at each time point, cells were incubated with 5 μM JC-1 dye for 30 min, washed with PBS and imaged by confocal microscopy on a LSM700 (Zeiss, Germany). […] Consequently, mitochondrial depolarization is quantified by dividing red over green fluorescence intensity.

[5] = test system: primary human hepatocytes; settings: cited from earlier work

For C=C(C)[C@H]1Cc2c(ccc3c2O[C@@H]2COc4cc(OC)c(OC)cc4[C@@H]2C3=O)O1 [rotenone], the CC50 at 12 h ([1]; after 12 hours, read-out: TC50 (dose dependence of oxygen uptake)) was 12.5 µM, the “oxygen uptake, % of normal respiration” value (HepG2/C3A cells [2]; 1 μM, 12 hours exposure) was 35% and the “reduction of oxygen uptake” value (HepG2/C3A cells [2]; 50 μM) was 80%. The “oxygen uptake, % of normal respiration” value (HepG2/C3A cells [2]; 50 μM, 12 hours exposure) was 27%, the “oxygen uptake, % of normal respiration” value (HepG2/C3A cells [2]; 200 μM, 12 hours exposure) was 15% and the “time to onset of mitochondrial damage” value (HepG2/C3A cells [2]; 0.2 mM) was ≤ 6 min. For the same compound, the “time within which the majority of the effect on oxygen uptake occurred” value (HepG2/C3A cells [2]; 1, 50, 200 μM) was ≤ 60 min, the “time to onset of mitochondrial damage, in words” value (HepG2/C3A cells [2]; dose-dependent) was “in minutes rather than hours” and the “loss of OCR / inhibition of mitochondrial respiration in isolated mitochondria” value (isolated mitochondria) was “immediate; also recorded: directly inhibit mitochondrial respiration in minutes”. The “decrease in oxidative phosphorylation flux” value (HepG2/C3A cells [3]; after 3 hours of exposure) was 90%, the “increase in glycolysis (flux)” value (HepG2/C3A cells [3]; after 3 hours of exposure) was 34% and the “ATP production, % of untreated cells” value (HepG2/C3A cells [3]) was “less than 36%”. For the same compound, the “Glutaminolysis (calculated metabolic flux)” value (HepG2/C3A cells [3]) was 0.56 nmol/min/10^6 cells, the “Glycolysis (calculated metabolic flux)” value (HepG2/C3A cells [3]) was 0.97 nmol/min/10^6 cells and the “Lipogenesis (calculated metabolic flux)” value (HepG2/C3A cells [3]) was 0 nmol/min/10^6 cells. For the same compound, the “Respiration (calculated metabolic flux)” value (HepG2/C3A cells [3]) was 0.03 nmol/min/10^6 cells, the “increase in mitochondrial membrane potential (MMP)” value (HepG2/C3A cells [4]; within 3 hours of exposure) was 40±6% and the “effect on mitochondrial membrane potential (MMP), in words” value (HepG2/C3A cells [4]; rotenone after 3 hours, troglitazone along 6 hours) was “significant increase”. The CC50 [5] was 2 µM.
With Cc1c(C)c2c(c(C)c1O)CCC(C)(COc1ccc(CC3SC(=O)NC3=O)cc1)O2 (stereo not drawn) [troglitazone] the CC50 at 24 h [1] was 285 µM, the “reduction of oxygen uptake” value (HepG2/C3A cells [2]; 50 μM) was 10% and the “oxygen uptake, % of normal respiration” value (HepG2/C3A cells [2]; 350 μM, 24 hours exposure) was 32%. The “oxygen uptake, % of normal respiration” value (HepG2/C3A cells [2]; 500 μM, 24 hours exposure) was 15%, the “oxygen uptake, % of normal respiration” value (HepG2/C3A cells [2]; 2000 μM, 24 hours exposure) was 8% and the “decrease in oxidative phosphorylation flux” value (HepG2/C3A cells [3]; after 6 hours of exposure) was 23%. For the same compound, the “increase in glycolysis (flux)” value (HepG2/C3A cells [3]; after 6 hours of exposure) was 51%, the “ATP production, % of untreated cells” value (HepG2/C3A cells [3]) was 97% and the “Glutaminolysis (calculated metabolic flux)” value (HepG2/C3A cells [3]) was 0.02 nmol/min/10^6 cells. The “Glycolysis (calculated metabolic flux)” value (HepG2/C3A cells [3]) was 2.25 nmol/min/10^6 cells, the “Lipogenesis (calculated metabolic flux)” value (HepG2/C3A cells [3]) was 0 nmol/min/10^6 cells and the “Respiration (calculated metabolic flux)” value (HepG2/C3A cells [3]) was 0.25 nmol/min/10^6 cells. The “increase in mitochondrial membrane potential (MMP)” value (HepG2/C3A cells [4]; over 6 hours of exposure) was 33±7% and the CC50 ([5]; read-out: TC50 in primary hepatocytes) was 100 µM.
